Biological target: neuraminidase
Experiment: Inhibition kinetics
Type: biochemical, influenza virus
Conditions: decrease in Vmax while Km remained stable

Row | Structure (SMILES) | Kinetic mode
1 | CC1=CC(=O)C2(O1)C(c1cc3oc(=O)c4cc(O)c(O)cc4c3c(=O)o1)=Cc1cc(O)c(O)cc12 (centres unmarked) [compound 1, phelligridin E] | noncompetitive
2 | O=C1C=C(/C=C/c2ccc(O)c(O)c2)OC12C(c1cc3oc(=O)c4cc(O)c(O)cc4c3c(=O)o1)=Cc1cc(O)c(O)cc12 (centres unmarked) [compound 2, phelligridin G] | noncompetitive
